{"source": "patent US6552066B1", "about": "“Protein tyrosine kinase inhibitors for treating osteoarthritis” (priority 1995, dated 2003)", "key": {"[1]": {"system": "aggrecanase activity in bovine cartilage explants", "assay": "Bovine cartilage explant assay without added plasminogen (IL-1-induced aggrecanase degradation)", "assay_type": "cell-based", "conditions": "no added plasminogen", "description": "The assay described in Example 2 can be carried out with and without added plasminogen. With plasminogen, the active forms of the metalloproteinases (MMPs) and plasmin were generated. It is believed that MMPs, “aggrecanase” and plasmin degraded the cartilage explant in this assay. […] Therefore, in the absence of plasminogen, cartilage degradation occurred primarily as a result of “aggrecanase” activity."}, "[2]": {"system": "aggrecanase cleavage of aggrecan (230K fragment)", "assay": "Aggrecanase neoepitope in IL-1-stimulated chondrocytes, BC-3 antibody immunoblot", "assay_type": "cell-based, bovine", "description": "Primary bovine articular chondrocytes from calf adio-carpal joints were isolated and cultured as above in Example 1, up to and including the addition of the following protein kinase inhibitors: 1) Protein kinase A (PKA) inhibitors; 0.5 μM H88 (Seikagaku Corp.), 0.5 μM H89 (Seikagaku Corp.); 2) Protein kinase C (PKC) inhibitors; 0.5 μM Calphostin C (Calbiochem), 1.0 μM Chelerythrine (Calbiochem); 3) CA^2+/Calmodulin Kinase II inhibitor; 5.0 μM KN93 (Seikagaku Corp.); 4) Protein tyrosine kinase (PTK) inhibitors; 50 μM Genistein (Calbiochem), 10 μM Herbimycin A (Calbiochem). After the 24 hour IL-1α incubation, the media of each sample was measured, and collected on ice in the presence of the protease inhibitors EGTA (5 mM), Pefaloc (1 mM), pepstatin (1 μg/ml), and NEM (5 mM). Media were concentrated approximately 40 fold using a Centriprep-10 ultrafiltration device (Amicon).\nProteoglycans contained within the media were deglycosylated by incubations with chondroitinase ABC, keratinase, and keratinase II following the procedure of Sandy et al. J Biol Chem (1991) 266:8683-8685 and Sandy et al. J. Clin Invest (1992) 89:1512-1516. Samples of deglycosylated media were subjected to 4-15% gradient SDS-PAGE and transferred to nitrocellulose membranes (2 ml-worth and 6 ml-worth of media were used for 2-B-6 and BC-3 immunoblotting, respectively.) The membranes were blocked with 1% nonfat dry milk and 1% BSA, and then incubated in either the BC-3 or 2-B-6 primary monoclonal antibody for 1 hour. The 2-B-6 antibody detects chondroitin sulfate stubs on chondroitinase-treated proteoglycans (both intact and degradation products. BC-3 antibody detects “ARGSV . . . ,” the new N-terminus (“neoepitope”) resulting from cleavage of aggrecan interglobular domain at Glu^373/ALA^374 by aggrecanase. It is of note to mention that the BC-3 and 2-B-6 antibodies were of low sensitivity. Following 3 washes, membranes were incubated in either alkaline phosphatase-conjugated goat anti-mouse (for the 2-B-6 blot) or biotinylated goat anti-mouse (for the BC-3 blot); followed by alkaline phosphatase-conjugated streptavidin/biotin complex). After washing 3 times, immunoreactive proteins were detected using NBT/BCIP (Sigma) colorimetric substrate."}, "[3]": {"system": "IL-1-stimulated release of radiolabelled proteoglycan from bovine cartilage explants", "assay": "Bovine cartilage explant assay with rhIL-1α and plasminogen (35S-GAG release)", "assay_type": "cell-based", "conditions": "Bos taurus, rhIL-1α 5 ng/mL, plasminogen 0.4 μM", "description": "A tissue culture assay was used to measure the ability of the compounds of the present invention to slow the degradation of the extracellular matrix by metalloproteinases. This assay measured the amount of ^35S-glycosaminoglycan (^35S-GAG) released from labeled bovine cartilage explants.\nKnee joints from a 1 to 3 week old calf were obtained immediately after sacrifice from the Abattoir and then transported on ice. The intact joints were washed well with tap water and soaked in 50% (v/v) Povidine iodine solution, obtained from Burre National, Inc., Baltimore, Md. All subsequent steps were performed in a laminar flow tissue culture hood using standard sterile technique. The joint was immobilized in a shank holder and the joint capsule was cut open to expose the articular cartilage. […]\nIndividual disks obtained were transferred to a tissue culture flask containing about 100 mL fresh media. […] When ready to label, the old media was replaced with 50 mL fresh media containing about 1.2 mCi ^35S-Sodium Sulfate. […]\nThe TC plates were then placed in the incubator and cultured for 3-4 days (initial incubation with rhIL-1α alpha takes at least 3 days to stimulate endogenous metalloproteinases). A 50 μL aliquot of media from each TC plate was saved and counted. […]"}}}
{"smiles": "O=c1c(-c2ccc(O)cc2)coc2cc(O)cc(O)c12", "note": "[Genistein]", "values": [{"measurement": "inhibition at 50 µM", "setting": "[1]; Bos taurus, 50 μM, read-out: inhibition of release of 35S-labelled proteoglycan", "value": 37, "unit": "%"}, {"measurement": "BC-3 immunoreactive band at approximately 230K (aggrecanase-mediated fragment)", "setting": "[2]; 50 μM", "value": "not present"}]}
{"smiles": "CO[C@H]1[C@@H](OC)C[C@H](C)[C@@H](OC)C2=CC(=O)C=C(NC(=O)/C(C)=C/C=C\\[C@H](OC)[C@@H](OC(N)=O)/C(C)=C/[C@@H]1C)C2=O", "note": "[Herbimycin A]", "values": [{"measurement": "inhibition at 2 µM", "setting": "[3]", "value": "~70", "unit": "%"}, {"measurement": "inhibition at 0.25 µM", "setting": "[1]; Bos taurus, 0.25 μM, read-out: inhibition of release of 35S-labelled proteoglycan", "value": 55, "unit": "%"}, {"measurement": "inhibition at 0.5 µM", "setting": "[1]; Bos taurus, 0.5 μM, read-out: inhibition of release of 35S-labelled proteoglycan", "value": 63, "unit": "%"}, {"measurement": "inhibition at 1 µM", "setting": "[1]; Bos taurus, 1 μM, read-out: inhibition of release of 35S-labelled proteoglycan", "value": 78, "unit": "%"}, {"measurement": "BC-3 immunoreactive band at approximately 230K (aggrecanase-mediated fragment)", "setting": "[2]; 10 μM", "value": "not present"}]}
{"smiles": "N#CC(C#N)=Cc1cc(O)c(O)c(O)c1", "note": "[Tyrphostin AG 82]", "values": [{"measurement": "inhibition of release of 35S-labelled proteoglycan", "setting": "[1]; 50 μM", "value": 31, "unit": "%"}]}
{"smiles": "N#CC(C#N)=Cc1ccc([N+](=O)[O-])c(O)c1", "note": "[Tyrphostin AG 126]", "values": [{"measurement": "inhibition of release of 35S-labelled proteoglycan", "setting": "[1]; 50 μM", "value": "no effect"}]}
